In ChEMBL document CHEMBL2163249, “Exploration of natural compounds as sources of new bifunctional scaffolds targeting cholinesterases and beta amyloid aggregation: the case of chelerythrine” (Bioorg Med Chem, 2012):
pIC50: −log10 of the molar value. Structures can show the parent of a compound that is named as a salt.

Assays:
Cholinesterase [1] = molecular target: Cholinesterase (Homo sapiens, UniProt P06276); test: Inhibition of human BChE by Ellman's method; conditions: for pIC50: read-out: IC50
Acetylcholinesterase = Acetylcholinesterase (Electrophorus electricus, UniProt O42275); test: Inhibition of electric eel AChE by Ellman's method; conditions: for pIC50: read-out: IC50
Cholinesterase [2] = molecular target: Cholinesterase (Equus caballus, UniProt P81908); test: Inhibition of horse BChE by Ellman's method; conditions: for pIC50: read-out: IC50
[3] = molecular target: Cholinesterase (Equus caballus) (UniProt P81908); conditions: at 2 mg/mL
Description: Inhibition of horse BChE at 2 mg/ml by Ellman's method

[4] = molecular target: Acetylcholinesterase (Electrophorus electricus) (UniProt O42275); conditions: at 2 mg/mL
Description: Inhibition of electric eel AChE at 2 mg/ml by Ellman's method

Chain of Cholinesterase (Homo sapiens, UniProt P06276) (P06276 whole entry): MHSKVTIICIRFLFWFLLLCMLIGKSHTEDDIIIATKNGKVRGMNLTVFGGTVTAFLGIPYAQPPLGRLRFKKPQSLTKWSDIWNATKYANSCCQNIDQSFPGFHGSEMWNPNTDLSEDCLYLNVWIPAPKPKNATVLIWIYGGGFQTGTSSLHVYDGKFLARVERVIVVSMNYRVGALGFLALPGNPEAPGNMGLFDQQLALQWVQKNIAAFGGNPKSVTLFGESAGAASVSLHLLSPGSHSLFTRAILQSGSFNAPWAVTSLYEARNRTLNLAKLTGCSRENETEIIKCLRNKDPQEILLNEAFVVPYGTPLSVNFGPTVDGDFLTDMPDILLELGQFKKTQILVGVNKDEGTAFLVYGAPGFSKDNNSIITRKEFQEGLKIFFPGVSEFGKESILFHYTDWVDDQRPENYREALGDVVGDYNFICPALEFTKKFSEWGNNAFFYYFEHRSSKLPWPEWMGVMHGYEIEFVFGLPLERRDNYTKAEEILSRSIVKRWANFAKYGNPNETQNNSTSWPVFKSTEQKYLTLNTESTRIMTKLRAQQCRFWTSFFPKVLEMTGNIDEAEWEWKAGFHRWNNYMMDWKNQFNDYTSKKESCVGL
Chain of Cholinesterase (Equus caballus) (P81908 whole entry): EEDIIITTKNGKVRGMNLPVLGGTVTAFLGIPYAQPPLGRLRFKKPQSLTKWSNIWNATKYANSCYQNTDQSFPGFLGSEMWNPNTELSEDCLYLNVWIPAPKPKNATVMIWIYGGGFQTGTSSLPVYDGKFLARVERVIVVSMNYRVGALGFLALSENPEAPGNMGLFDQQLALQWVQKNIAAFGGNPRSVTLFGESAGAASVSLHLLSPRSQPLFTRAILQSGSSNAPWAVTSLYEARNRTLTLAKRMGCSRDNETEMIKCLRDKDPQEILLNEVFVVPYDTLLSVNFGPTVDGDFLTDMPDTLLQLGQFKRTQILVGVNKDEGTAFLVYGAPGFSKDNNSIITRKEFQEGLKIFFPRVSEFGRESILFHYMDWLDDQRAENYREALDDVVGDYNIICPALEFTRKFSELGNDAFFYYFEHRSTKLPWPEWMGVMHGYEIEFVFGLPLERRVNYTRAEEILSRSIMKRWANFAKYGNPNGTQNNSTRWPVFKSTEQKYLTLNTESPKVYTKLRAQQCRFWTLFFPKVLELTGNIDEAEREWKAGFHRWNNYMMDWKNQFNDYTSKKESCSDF
Chain of Cholinesterase (Equus caballus, UniProt P81908) (P81908 whole entry): as above
Chain of Acetylcholinesterase (O42275 whole entry): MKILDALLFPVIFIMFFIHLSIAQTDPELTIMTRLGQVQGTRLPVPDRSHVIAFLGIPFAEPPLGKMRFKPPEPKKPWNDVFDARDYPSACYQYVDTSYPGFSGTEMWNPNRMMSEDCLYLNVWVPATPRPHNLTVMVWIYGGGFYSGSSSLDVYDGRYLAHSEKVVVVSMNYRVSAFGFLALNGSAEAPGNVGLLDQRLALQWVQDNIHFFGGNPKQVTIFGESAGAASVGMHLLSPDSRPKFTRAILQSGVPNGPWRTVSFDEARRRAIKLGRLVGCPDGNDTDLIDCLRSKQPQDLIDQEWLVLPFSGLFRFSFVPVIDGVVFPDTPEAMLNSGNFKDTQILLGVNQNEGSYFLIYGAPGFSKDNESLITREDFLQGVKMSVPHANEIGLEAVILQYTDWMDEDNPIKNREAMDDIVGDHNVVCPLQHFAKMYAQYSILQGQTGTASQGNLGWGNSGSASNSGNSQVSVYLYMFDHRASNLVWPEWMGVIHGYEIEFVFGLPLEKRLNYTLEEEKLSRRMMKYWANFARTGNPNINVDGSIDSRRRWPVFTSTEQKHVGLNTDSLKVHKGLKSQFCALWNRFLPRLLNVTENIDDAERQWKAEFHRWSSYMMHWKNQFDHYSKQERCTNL

Molecule | inhibition [3] [%] | inhibition [4] [%] | other results
CC[C@H]1CN2CCc3c([nH]c4ccccc34)[C@H]2C[C@@H]1/C(=C\OC)C(=O)OC [HIRSUTINE] | 87.1 | – | pIC50 (Cholinesterase [1]): 5.71; IC50 (Acetylcholinesterase): Not Active; pIC50 (Cholinesterase [2]): 5.30
O[C@H]1CCN2Cc3ccccc3N=C12 [VASICINE] | 85.7 | – | pIC50 (Cholinesterase [1]): 5.50; IC50 (Acetylcholinesterase): Not Active; pIC50 (Cholinesterase [2]): 5.60
OC1c2ccccc2N=C2CCCN21 (centres undefined) [PEGANOLE] | 65.7 | – | pIC50 (Cholinesterase [1]): < 4.70; IC50 (Acetylcholinesterase): Not Active; pIC50 (Cholinesterase [2]): 4.94
C=C[C@H]1C[N@@]2CC[C@H]1C[C@@H]2[C@@H](O)c1ccnc2ccc(OC)cc12 [QUINIDINE] | – | – | pIC50 (Cholinesterase [1]): 5.91; pIC50 (Cholinesterase [2]): 5.13
c1ccc2c(c1)CN1CCCC1=N2 [DESOXYPEGANINE HYDROCHLORIDE HYDRATE] | 94.8 | 70.6 | pIC50 (Acetylcholinesterase): 4.93; pIC50 (Cholinesterase [2]): 4.92
C=C[C@H]1CN2CC[C@H]1C[C@@H]2[C@@H](O)c1ccnc2ccc(OC)cc12 [QUINIDINE] | 66 | 20.2 | IC50 (Acetylcholinesterase): Not Active
CC(=O)C1=C(O)C=C2Oc3c(C(C)=O)c(O)c(C)c(O)c3[C@@]2(C)C1=O | 4.28 | 2.06 | –
C=C(C)[C@H]1Cc2c(ccc3c2O[C@@H]2COc4cc(OC)c(OC)cc4[C@@H]2C3=O)O1 | 6.43 | 16.4 | –
NEOMYCIN SULFATE | 10.5 | -9.42 | –
C[C@@H]1OC(=O)[C@H]2C[C@H]3CCCC[C@@H]3[C@@H](/C=C/[C@H]3CCC[C@H](C)N3C)[C@@H]12 [HIMBACINE] | – | 57 | IC50 (Cholinesterase [1]): Not Active; pIC50 (Acetylcholinesterase): 4.64; IC50 (Cholinesterase [2]): Not Active
COc1cc(C2Oc3cc([C@H]4Oc5cc(O)cc(O)c5C(=O)[C@@H]4O)ccc3OC2CO)ccc1O (some centres undefined) | -7.94 | 7.08 | –
COc1ccc2[nH]cc(CCNC(C)=O)c2c1 | 1.01 | 15.5 | –
COC(=O)C1=CO[C@@H](C)[C@@H]2CN3CCc4c([nH]c5ccccc45)[C@@H]3C[C@H]12 | 89.1 | 22 | –
CC1(C)C2CCC1(C(=O)O)C(=O)C2 (centres undefined) | -2.51 | 16.7 | –
COc1cc(-c2oc3cc(O)cc(O)c3c(=O)c2O)ccc1O | -2.06 | 5.76 | –
C=CCc1cc(OC)c2c(c1)OCO2 | -9.87 | 6.75 | –
Cc1coc2c1C(=O)C(=O)c1c-2ccc2c1CCCC2(C)C | -0.66 | 13.1 | –
COc1cccc2oc(-c3ccccc3)cc(=O)c12 | 18.3 | 37.5 | –
Cc1cccc2c3c(ccc12)C1=C(C(=O)C3=O)[C@@H](C)CO1 | -3.19 | 3.53 | –
C[n+]1cccc(C(=O)[O-])c1 | -5.02 | -1.47 | –
C[C@H]1[C@H]2CC[C@H]3[C@@H]4CC=C5C[C@@H](N(C)C)CC[C@]5(C)[C@H]4CC[C@]23CN1C | 45.2 | 29.9 | –
Oc1cc(O)cc(/C=C/c2ccc(O)c(O)c2)c1 | 2.21 | 17 | –
C[n+]1cc2c3c(ccc2c2ccc4cc5c(cc4c21)OCO5)OCO3 | 1.3 | 27 | –

Molecule | inhibition [3] [%] | inhibition [4] [%] | other results
CN1CCc2cc3c(c4c2[C@H]1Cc1ccccc1-4)OCO3 | 25.9 | 34.2 | –
COC(=O)/C(=C1/OC(=O)C(c2ccccc2)=C1O)c1ccccc1 | 0.35 | 4.9 | –
C=C1C(=O)O[C@@H]2C3O[C@]3(C)CC/C=C(\C)CC[C@@H]12 (some centres undefined) | 14 | -5.29 | –
CN(C)Cc1c[nH]c2ccccc12 | 10.6 | 15.3 | –
O=c1cc(-c2ccc(O)cc2)oc2cc(O)c([C@@H]3O[C@H](CO)[C@@H](O)[C@H](O)[C@H]3O)c(O)c12 | 1.98 | 20.7 | –
CC(=O)OC[C@@]1(O)C[C@@]23CC[C@@H]4c5ccoc5C=C[C@@]4(C)[C@@H]2CC[C@@H]1C3 | 1.7 | 14.1 | –
O[C@H]1[C@H]2[C@H](O)CCCN2C[C@H]1O | -2.04 | 5.09 | –
COc1ccc2c(c1OC)C(=O)O[C@H]2[C@@H]1c2cc3c(cc2CCN1C)OCO3 | -1.4 | 9.75 | –
O=C1C=C2C=C[C@@H]3C[C@@]2(O1)[C@H]1CCCCN31 | 6.85 | 7.44 | –
IVERMECTIN | -3.98 | 17.8 | –
COc1cc(C(=O)O[C@H]2C/C(C)=C/CC/C(C)=C/[C@H](O)[C@@H]2C(C)C)ccc1O | 3.49 | 23.6 | –
COc1cc2ccc(=O)oc2cc1O | 0.6 | 4.78 | –
CCCCC[C@H](O)/C=C/[C@H]1[C@H](O)CC(=O)[C@@H]1C/C=C\CCCC(=O)O | -2.38 | 14.8 | –
CCCC[N+]1(C)[C@@H]2C[C@@H](OC(=O)[C@H](CO)c3ccccc3)C[C@H]1[C@@H]1O[C@@H]12 (some centres undefined) | -4.42 | 22.5 | –
CCCCC[C@H](O)/C=C/[C@H]1[C@H](O)CC(=O)[C@@H]1CCCCCCC(=O)O | -1.69 | 16.6 | –
O=C1C[C@@H](c2ccc(O)c(O)c2)Oc2cc(O[C@@H]3O[C@H](CO)[C@@H](O)[C@H](O)[C@H]3O)cc(O)c21 | -9.51 | 25.4 | –
NC[C@H]1O[C@H](O[C@H]2[C@H](O)[C@@H](O[C@H]3O[C@H](CO)[C@@H](O)[C@H](N)[C@H]3O)[C@H](N)C[C@@H]2N)[C@H](O)[C@@H](O)[C@@H]1O | -5.91 | 17.6 | –
C[C@@H]1CC[C@H]2[C@H](C)[C@H]3CC[C@@]4(O)[C@@H]5CC(=O)[C@H]6CC(=O)CC[C@]6(C)[C@H]5C[C@H]4[C@@H]3CN2C1 [SEVEDINDIONE] | 17 | – | pIC50 (Cholinesterase [1]): 6.57; IC50 (Acetylcholinesterase): Not Active; pIC50 (Cholinesterase [2]): 5.43
C[C@@H]1CC[C@]2(NC1)O[C@H]1C[C@H]3[C@@H]4CC=C5C[C@@H](O)CC[C@]5(C)[C@H]4CC[C@]3(C)[C@H]1[C@@H]2C | 53.7 | 1.63 | –
CCN1C[C@]2(COC)CC[C@H](OC)[C@]34C1[C@H]([C@H](OC)[C@H]23)[C@@]1(OC(C)=O)C[C@H](OC)[C@@]2(O)C[C@@H]4[C@@H]1[C@H]2C(=O)c1ccc(OC)cc1 | 9.36 | 3.52 | –
COC1=C[C@@H](C)[C@@H]2C[C@H]3OC(=O)C[C@H]4C(C)=C(OC)C(=O)[C@H]([C@@]2(C)C1=O)[C@@]34C | 4.69 | 24.7 | –
CC1=C2[C@H]3OC(=O)[C@@H](C)[C@@H]3CC[C@@]2(C)C=CC1=O | -3.62 | 3.63 | –
CC(=O)OC[C@]12CCC(C)=C[C@H]1O[C@@H]1[C@H](O)[C@@H](OC(C)=O)[C@@]2(C)[C@]12CO2 | 12.3 | 23.8 | –

Molecule | inhibition [3] [%] | inhibition [4] [%] | other results
COc1cc(O)c2c(c1)oc(=O)c1c3cc(O)c(O)cc3oc21 | 11.1 | 11.8 | –
C[C@@H]1Cc2c(Cl)cc(C(=O)N[C@@H](Cc3ccccc3)C(=O)O)c(O)c2C(=O)O1 | 8.75 | -6.4 | –
COc1cc(CCC(C)=O)ccc1O | 10.8 | -5.32 | –
CC(C)CCNC(=O)[C@H](CC(C)C)NC(=O)[C@H]1O[C@@H]1C(=O)O | 10.6 | -1.94 | –
COc1cc2c3cc1Oc1c(OC)c(OC)cc4c1[C@@H](Cc1ccc(OC(=O)c5ccc([N+](=O)[O-])cc5)c(c1)Oc1ccc(cc1)C[C@@H]3N(C)CC2)N(C)CC4 [E6 BERBAMINE] | 0.47 | – | pIC50 (Cholinesterase [1]): 5.67; IC50 (Acetylcholinesterase): Not Active; pIC50 (Cholinesterase [2]): 5.38
O=C(O)c1cc(N(Cc2ccccc2O)Cc2ccccc2O)ccc1O | 1.67 | 2.48 | –
COc1cc(=O)oc(/C=C/C=C/C=C/C(C)=C/[C@@]2(C)O[C@H](C)[C@](C)(O)[C@H]2O)c1C | 16.6 | 27.1 | –
O=[N+]([O-])c1ncc[nH]1 | 14.4 | 4.77 | –
COc1ccc(C[C@H](N)C(=O)N[C@H]2[C@@H](O)[C@H](n3cnc4c(N(C)C)ncnc43)O[C@@H]2CO)cc1 | -9.98 | -7.92 | –
CC(=O)c1c(O)c(C)c(O)c(Cc2c(O)c3c(c(C(=O)/C=C/c4ccccc4)c2O)OC(C)(C)C=C3)c1O | 4.24 | 15.8 | –
COc1ccc2c3c([nH]c2c1)C(C)=NCC3 | 0.63 | 40.4 | –
C[C@@H]1O[C@@H](O[C@H]2[C@H](Oc3cc(O)c4c(c3)O[C@H](c3ccc(O)cc3)CC4=O)O[C@H](CO)[C@@H](O)[C@@H]2O)[C@H](O)[C@H](O)[C@H]1O | -5.49 | -3.38 | –
O=C1C[C@@H](c2ccccc2)Oc2cc(O)cc(O)c21 | 1.45 | 27.3 | –
CN1[C@H]2C[C@H](OC(=O)[C@H](CO)c3ccccc3)C[C@@H]1[C@@H](O)C2 | 8.08 | 9.43 | –
C/C=C1/C[C@@H](C)[C@@](C)(O)C(=O)OCC2=CCN3CC[C@@H](OC1=O)[C@@H]23 | 19.2 | 7.46 | –
CC1=CC(=O)c2c(O)cccc2C1=O | 9.94 | 31.8 | –
COC1=C(C(C)=O)C2=C(C)Cc3c(OC)c(=O)c(O)c4cc(OC)c5c(OC)cc(O)c6c(c2c3c4c56)C1=O | -0.88 | 4.6 | –
COc1ccc(-c2cc(=O)c3c(O)cc(O[C@@H]4O[C@H](CO[C@@H]5O[C@@H](C)[C@H](O)[C@@H](O)[C@H]5O)[C@@H](O)[C@H](O)[C@H]4O)cc3o2)cc1O | 7.92 | 9.59 | –
CN(C)CCc1ccc(O)cc1 | -2.06 | -4.35 | –
OC[C@@H]1CCCN2CCCC[C@H]12 | -7.44 | 1.61 | –
CCOC(=O)Oc1c(OC)cc(C(=O)O[C@@H]2C[C@@H]3CN4CCc5c([nH]c6cc(OC)ccc56)[C@H]4C[C@@H]3[C@H](C(=O)OC)[C@H]2OC)cc1OC | -6.04 | -6.1 | –
